Data reported in patent US20240408071A1, “NOVEL COMBINATION OF SEROTONIN RECEPTOR (5-HTR2B) ANTAGONIST AND AN IMMUNOMODULATOR AND CHEMOTHERAPEUTIC DRUGS FOR INHIBITION OF CANCER” (NATIONAL CENTRE FOR CELL SCIENCE, priority 2021, published 2024).
“Also recorded” adds a separate entry of the source.

Experiments:
MC38 colon cancer cells = assay: MC38 colon tumor growth (tumor volume) in C57BL/6 mice; assay type: in vivo
Protocol: Tumor volumes were measured and plotted. (B) MC38 colon cancer cells were injected subcutaneously into the right flank of C57BL/6 mice. After seven days when tumors became palpable, one group was treated with 5-HTR7 antagonist SB-269970 (n=6 mice; 3 mg/kg/day) or left untreated (n=6 mice). Tumor volume was measured and plotted. (C) After seven days of the setting of tumor growth, one group was treated with a serotonin transporter blocker (SSRI) sertraline hydrochloride (n=6 mice; 15 mg/kg/week) or left untreated (n=6 mice). Tumor volume was measured and plotted. (D) C57BL/6 mice were given subcutaneously injected MC38 cells. After seven days of tumor growth, one group of mice was treated with different doses of 5-HTR2B antagonist SB-215505 (n=6). Tumor volume was measured and plotted. (E) C57BL/6 mice were given subcutaneously injected MC38 cells. After seven days of the tumor growth, one group of mice was treated with different doses of 5-HTR2B antagonist SB-215505 (n=6), one group treated with 5-HTR2B agonist BW-723C86 (n=6; 4 mg/kg/day). Tumor volume was measured and plotted. (F) MC38 cells were subcutaneously injected into C57BL/6 mice. After seven days when the tumor became palpable in mice, one group of mice was treated with FDA-approved 5-HTR2B antagonist cariprazine (Carispec; Sun pharma) via oral gavage (n=5 mice; dose 5 mg/kg body weight/day) or left untreated (n=5 mice). Tumor growth was measured and plotted. […] All the statistical analysis was performed using Student's ‘t’ test or two-way ANOVA using Sidak's multiple comparison test. *P<0.05; **P<0.01; ***P<0.00; ****P<0.0001 Error bar represents mean±standard error of means (SEM).

PD-L1 [1] = assay: Serum PD-L1 ELISA in MC38 tumor-bearing mice; assay type: in vivo, C57BL/6J mice; details: MC38 tumor-bearing mice, 5 mg/kg/day, 14 days after tumor inoculation (FIG. 13F)
Protocol: FIG. 13 depicts 5-HTR2B signaling promotes PD-L1 expression on the MC38 cell line in vitro: (A-B) MC38 cells are treated with 5-HTR2B agonist (BW-723C86-50 μM), serotonin (100 μM), and 5-HTR2B antagonist (RS-127445-50 μM) for 72 hours, and the PD-L1 expression was checked by flow cytometry and the percentage of PD-L1^+ MC38 cells was plotted. (C-D) MFI of PD-L1 from the above experiment were plotted as histogram overlay (C) or as statistical data points (D). (E) Relative PD-L1 mRNA expression in MC38 cells following BW-723C86 and RS-127445 treatment for 48 hours. Here the values are shown as a fold change as compared to control MC38 cells. […] All the statistical analysis was performed using either Student's ‘t’ test or two-way ANOVA using Sidak's multiple comparison test. *P<0.05; **P<0.01; […]; ****P<0.0001 Error bar represents mean±standard error of means (SEM).
Universal competitive serotonin ELISA kit was purchased from Novus biological (Catalog #NBP2-68127), and ELISA was performed according to the manufacturer's protocol. Mouse PD-L1 DuoSet ELISA kit was procured from the R&D System (Catalog #DY1019-05), and the ELISA was performed according to the manufacturer's guidelines.
(§1) To understand it, investigations were done on whether 5-HTR2B signaling also affects the surface expression of molecules that alters inflammatory and cytotoxic immune cells. Among different molecules, PD-L1 is of particular interest as it is an immune checkpoint ligand that affects cytotoxic T-cell responses toward cancer. […] (FIG. 13F).

PD-L1 [2] = assay: PD-L1 expression on MC38 cells in vitro (flow cytometry, mRNA); assay type: cell-based, mouse; details: BW-723C86 50 μM, serotonin 100 μM, RS-127445 50 μM, 72 hours (mRNA 48 hours) (FIG. 13A-E)
Protocol: FIG. 13 depicts 5-HTR2B signaling promotes PD-L1 expression on the MC38 cell line in vitro: (A-B) MC38 cells are treated with 5-HTR2B agonist (BW-723C86-50 μM), serotonin (100 μM), and 5-HTR2B antagonist (RS-127445-50 μM) for 72 hours, and the PD-L1 expression was checked by flow cytometry and the percentage of PD-L1^+ MC38 cells was plotted. (C-D) MFI of PD-L1 from the above experiment were plotted as histogram overlay (C) or as statistical data points (D). (E) Relative PD-L1 mRNA expression in MC38 cells following BW-723C86 and RS-127445 treatment for 48 hours. Here the values are shown as a fold change as compared to control MC38 cells. (F) Serum PD-L1 level was measured by ELISA of naïve C57BL/6J mice, control MC38 tumor-bearing mice, BW-723C86 (5 mg/kg/day) treated MC38 tumor-bearing mice and RS-127445 (5 mg/kg/day) treated MC38 tumor-bearing mice after 14 days of tumor inoculation. All the statistical analysis was performed using either Student's ‘t’ test or two-way ANOVA using Sidak's multiple comparison test. *P<0.05; **P<0.01; […]; ****P<0.0001 Error bar represents mean±standard error of means (SEM).
as §1

| SMILES | MC38 tumor growth (MC38 colon cancer cells; 5-HTR2B agonist 4 mg/kg/day (FIG. 7E)) | circulating free PD-L1 in the serum (PD-L1 [1]) | expression of PD-L1 in the colon cancer cells (PD-L1 [2]) | MC38 tumor growth (MC38 colon cancer cells; 4 mg/kg/day from day 7 after inoculation, vs untreated (FIG. 7A)) | effect in controlling tumor growth compared to SB-215505 (MC38 colon cancer cells; MC38 tumor, equivalent dose) | tumor growth, combination with 5-Fluorouracil (MC38 colon cancer cells; RS-127445 2 mg/kg/day + 5-Fluorouracil 10 mg/kg/alternate days, MC38 model (FIG. 16B)) | efficacy of combination with Irinotecan (MC38 colon cancer cells; RS-127445 2 mg/kg/day + Irinotecan 15 mg/kg/day for 5 days, subcutaneous colon cancer model (FIG. 16D)) | efficacy of combination with Oxaliplatin (MC38 colon cancer cells; RS-127445 2 mg/kg/day + Oxaliplatin 4 mg/kg/day for 5 days, subcutaneous colon cancer model (FIG. 16C)) | efficacy of combination with trifluorothymidine (MC38 colon cancer cells; RS-127445 2 mg/kg/day + trifluorothymidine 20 mg/kg/day (FIG. 16E)) |
| --- | --- | --- | --- | --- | --- | --- | --- | --- | --- |
| CC(N)Cc1c[nH]c2ccc(OCc3cccs3)cc12 (centres unmarked) [BW-723C86] | significantly promotes MC38 tumor growth | increased the circulating free PD-L1 in the serum | increased the expression of PD-L1 |  |  |  |  |  |  |
| CC(C)c1cc(-c2ccc(F)c3ccccc23)nc(N)n1 [RS-127445] |  | diminished | reduced the expression of PD-L1 | efficiently control the tumor growth; also recorded: potent molecule in reducing the tumor burden | even more potent effect in controlling tumor growth | much better response by reducing tumor growth than any of them alone | significantly enhanced the efficacy of irinotecan or RS-127445 alone | significantly enhanced the efficacy of oxaliplatin or RS-127445 alone | not found any significant alterations in the efficacy |
